Experimental findings from ChEMBL document CHEMBL5528009, “Benzothiozinone derivatives with anti-tubercular Activity-Further side chain investigation” (Eur J Med Chem, 2024) are described below.

pIC50: −log10 of the molar value. Values after ≈ are worked out from the molar mass of the structure shown. Active and inactive are the calls of the source. Where only a bound is given, the exact number is not on record here.

The target in data set [1] is T1, Decaprenylphosphoryl-beta-D-ribose oxidase (Mycobacterium tuberculosis (strain ATCC 25618 / H37Rv), UniProt P9WJF1).
T1 sequence (P9WJF1 whole entry): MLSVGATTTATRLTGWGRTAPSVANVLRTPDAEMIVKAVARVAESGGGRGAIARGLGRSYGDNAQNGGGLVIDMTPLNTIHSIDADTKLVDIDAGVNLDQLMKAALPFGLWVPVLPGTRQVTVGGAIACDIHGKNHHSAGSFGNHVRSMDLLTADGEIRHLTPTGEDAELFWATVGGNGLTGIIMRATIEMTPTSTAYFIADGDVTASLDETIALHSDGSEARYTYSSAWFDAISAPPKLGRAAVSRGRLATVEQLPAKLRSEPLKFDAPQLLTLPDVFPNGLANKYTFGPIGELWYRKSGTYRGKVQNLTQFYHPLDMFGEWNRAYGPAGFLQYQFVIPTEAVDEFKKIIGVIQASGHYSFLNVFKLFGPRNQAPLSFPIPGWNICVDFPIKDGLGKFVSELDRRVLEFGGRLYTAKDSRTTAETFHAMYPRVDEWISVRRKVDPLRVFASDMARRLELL
The data set is described as follows: Inhibition of recombinant Mycobacterium tuberculosis DprE1 expressed in Escherichia coli measured after 120 mins by Amplex Red/peroxidase coupled assay.

The nature of data set [2]: Protein binding in mouse plasma assessed as unbound fraction incubated for 24 hrs by equilibrium dialysis based LC/MS analysis. It is filed as ADME, cell-free.
Data set [3] in a line: Elimination half life in ICR mouse at 5 micromol/kg, iv measured after 24 hrs by LC-MS/MS analysis. In kind it is ADME, organism-based. Conditions: in vivo, dose 5 µmol/kg, read-out: beta t1/2 (converted).
Data set [4] in a line: Elimination half life in ICR mouse at 25 micromol/kg, po measured after 24 hrs by LC-MS/MS analysis. In kind it is ADME, organism-based. As to conditions: in vivo, dose 25 µmol/kg, read-out: beta t1/2 (converted).
A short description of data set [5]: Drug concentration in ICR mouse plasma at 5 micromol/kg, iv measured after 5 mins by LC-MS/MS analysis. It is filed as ADME, organism-based. Conditions: dose 5 µmol/kg.
Data set [6] is described as follows: Oral bioavailability in ICR mouse at 25 micromol/kg measured after 24 hrs by LC-MS/MS analysis. In kind it is ADME, organism-based. As to conditions: ICR, in vivo, 25 µmol/kg.
The test system of a further data set is HepG2. The experiment in a line: Cytotoxicity against human HepG2 cells at 30 uM incubated for 48 hrs by CCK8 assay. Conditions: hepg2, 48 h. It is filed as toxicity, cell-based. On the technique in general: Tetrazolium dyes change colour on reduction, which living cells bring about.
The nature of data set [7]: Tmax in ICR mouse at 25 micromol/kg, po measured after 24 hrs by LC-MS/MS analysis. As to conditions: in vivo, dose 25 µmol/kg. In kind it is ADME, organism-based.
Data set [8] in a line: Cytotoxicity against mouse hepatic stellate cells at 30 uM incubated for 48 hrs by CCK8 assay. It is filed as toxicity, cell-based. As to conditions: hepatic stellate cell.
The nature of data set [9]: Aqueous solubility of the compound in PBS buffer at pH 6.82 incubated for 4 hrs by HPLC analysis. In kind it is physicochemical.
A short description of data set [10]: Total plasma clearance in ICR mouse at 5 micromol/kg, iv measured after 24 hrs by LC-MS/MS analysis. In kind it is ADME, organism-based. As to conditions: dose 5 µmol/kg.
Data set [11] can be described thus: Metabolic stability in NADPH-fortified human liver microsomes assessed as CYP450-mediated stability incubated for 120 mins by LC/MS analysis. As to conditions: 2 h. It is filed as ADME, Microsome.
Data set [12] is described as follows: AUC (0 to 24 hrs) in ICR mouse at 25 micromol/kg, po by LC-MS/MS analysis. As to conditions: ICR, in vivo, dose 25 µmol/kg. In kind it is ADME, organism-based.
Data set [13] deals with Mycobacterium tuberculosis. The data set is described as follows: Antitubercular activity against Mycobacterium tuberculosis H37Rv infected in BALB/c mouse assessed as log reduction in colony formation in lung at 50 mg/kg, po administered for 6 weeks. It is filed as functional.
The nature of data set [14]: Cmax in ICR mouse at 25 micromol/kg, po measured after 24 hrs by LC-MS/MS analysis. In kind it is ADME, organism-based. As to conditions: in vivo, dose 25 µmol/kg.
Data set [15] can be described thus: Metabolic stability in NADPH-fortified mouse liver microsomes assessed as CYP450-mediated stability incubated for 120 mins by LC/MS analysis. In kind it is ADME, Microsome. As to conditions: 2 h.
Data set [16] has as its target T2, Decaprenylphosphoryl-beta-D-ribose oxidase (Mycobacterium tuberculosis (strain ATCC 25618 / H37Rv)) (UniProt P9WJF1).
T2 sequence (whole entry): T1 sequence (P9WJF1 whole entry)
The data set is described as follows: Time-dependent covalent inhibition of recombinant Mycobacterium tuberculosis DprE1 expressed in Escherichia coli by Amplex Red/peroxidase coupled assay.

Data set [17] is described as follows: MRT in ICR mouse at 25 micromol/kg, po measured after 24 hrs by LC-MS/MS analysis. In kind it is ADME, organism-based. As to conditions: in vivo, dose 25 µmol/kg.
For data set [18], the system named is Mycobacterium tuberculosis. The experiment in a line: Antitubercular activity against Mycobacterium tuberculosis H37Rv (ATCC 25618) incubated for […] by MABA assay. In kind it is functional. Background: Resazurin is reduced to fluorescent resorufin, in cell work by metabolically active cells.
Data set [19] in a line: Volume of distribution at steady state in ICR mouse at 5 micromol/kg, iv measured after 24 hrs by LC-MS/MS analysis. In kind it is ADME, organism-based. As to conditions: in vivo, dose 5 µmol/kg, read-out: Vdss.
The nature of data set [20]: AUC (0 to 8 hrs) in ICR mouse at 5 micromol/kg, iv by LC-MS/MS analysis. Conditions: ICR, in vivo, dose 5 µmol/kg. In kind it is ADME, organism-based.
The nature of data set [21]: MRT in ICR mouse at 5 micromol/kg, iv measured after 24 hrs by LC-MS/MS analysis. As to conditions: in vivo, dose 5 µmol/kg. In kind it is ADME, organism-based.

Consider `CN(CC#Cc1ccccc1)c1nc(=O)c2cc(C(F)(F)F)cc([N+](=O)[O-])c2s1`, for which, in [1], the pIC50 was 7.64. In addition, the Fu in [2] turned out to be 0.25%. For the same compound, the half-life was 1.77 h in [3] and 2.95 h in data set [4]. Moreover, the concentration at 5 min in [5] amounted to 13.5 µM. In data set [6], the bioavailability came out at 4.49%. Moreover, the Activity result with HepG2 is “Non-Toxic”; in data set [8], “Non-Toxic”; in data set [13], less than 1 log10CFU. For the same compound, the Tmax in data set [7] came to 0.9 h. The solubility at 4 h in [9] came to 0.8 µg/mL (≈ 1.91 µM). Besides, the clearance in data set [10] is 0.09 L/h/kg. The Stability result in data set [11] and in [15] was “Stable” in each case. The AUC(0-t) in data set [12] came out at 5.16 µM·h; in data set [20] it was 23.2 µM·h. In [14], this compound registered a Cmax of 1.29 µM. Further, the TDI result in data set [16] is “Active”. In addition, the MRT in data set [17] was 4.35 h; in [21] it was 2.72 h. The MIC in data set [18] was 7 nM (≈ 2.94 ng/mL). In data set [19], the Vd turned out to be 0.25 L/kg.

In general, pIC50 refers to the IC50 on a negative log10 scale, so that one unit is a factor of ten. What is called bioavailability is the share of a dose that reaches the circulation, judged against a reference dose that is usually intravenous. Low readings indicate little systemic uptake, high ones much systemic uptake. For orientation: Tmax means the time at which the peak concentration occurs. By solubility is commonly meant the concentration that dissolves in the medium under given conditions. A low value points to little dissolved substance. In general, clearance refers to the volume of plasma or blood freed of the substance per unit of time. A low value points to a low capacity for elimination. In general, AUC(0-t) refers to exposure summed from dosing to a finite time, without extrapolation to infinity. Read a low AUC(0-t) as low exposure. A word on the Cmax: it is the peak of the concentration-time curve. The term MRT denotes a mean duration of stay, worked out from the concentration-time curve. By MIC is commonly meant the smallest concentration in the dilution series that meets the test's criterion for growth inhibition. Read a low MIC as greater potency.
